{
  "source": "paper PMC6625639",
  "about": "(Biochemical pharmacology, 2018)",
  "key": {"SULT2A1": {"target": "T1, SULT2A1 (Homo sapiens, UniProt Q06520)", "T1 sequence (Q06520 1-285)": "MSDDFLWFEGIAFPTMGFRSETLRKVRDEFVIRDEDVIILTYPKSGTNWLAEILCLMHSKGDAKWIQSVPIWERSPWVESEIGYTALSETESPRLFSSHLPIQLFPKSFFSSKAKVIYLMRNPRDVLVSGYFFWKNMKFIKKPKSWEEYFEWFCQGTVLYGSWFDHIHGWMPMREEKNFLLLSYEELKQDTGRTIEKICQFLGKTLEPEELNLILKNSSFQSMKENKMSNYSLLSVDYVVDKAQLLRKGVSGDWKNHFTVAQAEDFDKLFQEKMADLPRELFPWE", "type": "biochemical"}, "SULT1A1": {"target": "SULT1A1 (Homo sapiens, UniProt P50225)", "sequence (P50225 whole entry)": "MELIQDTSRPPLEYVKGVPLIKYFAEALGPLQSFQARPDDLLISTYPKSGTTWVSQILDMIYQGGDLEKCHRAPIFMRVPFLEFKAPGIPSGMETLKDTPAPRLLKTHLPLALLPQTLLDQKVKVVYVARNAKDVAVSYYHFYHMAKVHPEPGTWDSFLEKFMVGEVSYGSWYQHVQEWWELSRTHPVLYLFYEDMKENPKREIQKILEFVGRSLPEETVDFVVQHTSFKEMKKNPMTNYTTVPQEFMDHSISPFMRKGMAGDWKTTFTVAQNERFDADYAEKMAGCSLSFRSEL", "type": "biochemical"}},
  "data": [
    {"compound": "Cc1cccc(Nc2ccccc2C(=O)O)c1C", "note": "[Mef, Mefenamic acid]", "values": [
      {"measurement": "Ki", "setting": "SULT2A1", "value": 14, "unit": "µM"},
      {"measurement": "Ki", "setting": "SULT1A1", "value": 0.027, "unit": "µM"}
    ]}
  ]
}
